From PMC9495826, “Membranolytic Mechanism of Amphiphilic Antimicrobial β-Stranded [KL]n Peptides” (Biomedicines, 2022)
Read-outs that look alike come from different tables or passages of the source. No end group written: not given here.

How the values were obtained:
[1] = tested on: erythrocytes; assay: Hemolysis assay; assay type: cell-based
[2] = tested on: Staphylococcus xylosus (DSM 20287); assay type: cell-based
Protocol: (§1) The antimicrobial activity of the KL peptides was determined with a MIC assay. Peptide activity was tested against Gram-negative Escherichia coli (DSM 1116) and Enterobacter helveticus (DSM 18390) and against Gram-positive Bacillus subtilis (DSM 347) and Staphylococcus xylosus (DSM 20287) as previously reported. Our standard MIC assay was modified to avoid unnecessary exposure of peptides to the phosphate-containing growth medium, which was previously found to affect the results due to phosphate-induced aggregation of peptides. Details can be found in the Supplementary Materials.
(§2) The activity of KL and LK peptides against bacteria was examined using a MIC assay. […] We have previously shown that KL peptides, especially the longer ones, aggregate vigorously in the presence of phosphate ions. […] Therefore, here we used a modified MIC assay that was developed in our previous study, as described in the Methods section. In this approach, a two-fold dilution series was first prepared with peptides dissolved in water, and only thereafter were the bacteria in the medium added so that the peptides were simultaneously exposed to bacteria and phosphate-containing medium.
(§3) 1.3 MIC (minimum inhibitory concentration) assay
(§4) Antimicrobial activity was measured by a minimal inhibitory concentration (MIC) assay, carried out with Gram-positive Bacillus subtilis (DSM 347) and Staphylococcus xylosus (DSM 20287) and with Gram-negative Escherichia coli (DSM 1116) and Enterobacter helvet-icus (DSM 18390). Bacteria were grown in Müller-Hinton medium at 37°C overnight. Bac-terial solutions with OD550 = 0.2 was further diluted 1:100 for Gram-positive and 1:1000 for Gram-negative bacteria to get a concentration of […] colony forming units (CFU)/mL. Mi-crotiter plates (96 wells of 100 μL) were filled peptide solution to obtain serial 2-fold dilu-tion series of peptides. 50 µL of pure water was first added to each well. To the first well 50 µL peptide solution was added, after mixing 50 µL of this was transferred to the second well and so on. After all plates were prepared, 50 µL bacterial solution in double-concen-tration MHM was added to the wells (except for the final row of each plate) to give a final concentration of 5 × 10^5 CFU/mL in the wells. Thus, peptides got in contact with phosphate and bacteria simultaneously. […]
(§5) gregate stronlgy in contact with the phosphate containing growth medium. The two final rows of each plate remained without peptide, so that the penultimate data point served as the positive co ntrol (no peptide), and the final one as the negative control (not inoculated). The plates were incubated at 37°C for 20 h, and cell viability was probed by addition of 20 µL 0.2 mg/mL resazurin and incubation at 37°C for 2 h. The MIC value was determined visually as the lowest peptide concentration inhibiting bacterial growth. […]
(§6) Unencapsulated dye was removed by gel filtration using spin columns filled with Sephacryl 100-HR (Sigma-Aldrich, Taufkirchen, Germany), and equilibrated with an elu-tion buffer (150 mM NaCl, 10 mM HEPES, pH 7.5), which balances the internal vesicle

[3] = tested on: Enterobacter helveticus (DSM 18390); assay type: cell-based
Protocol: as §1, §2, §3, §4, §5, §6

[4] = tested on: Escherichia coli (DSM 1116); assay type: cell-based
Protocol: as §1, §2, §3, §4, §5, §6

[5] = tested on: Bacillus subtilis (DSM 347); assay type: cell-based
Protocol: as §1, §2, §3, §4, §5, §6

[6] = tested on: four bacterial strains; assay: MIC assay, overall statement for the four strains; assay type: cell-based, E. coli, E. helveticus, B. subtilis, S. xylosus; details: modified MIC assay
Protocol: as §1
The activity of KL and LK peptides against bacteria was examined using a MIC assay. […] We have previously shown that KL peptides, especially the longer ones, aggregate vigorously in the presence of phosphate ions. […] Therefore, here we used a modified MIC assay that was developed in our previous study, as described in the Methods section. […]
Antimicrobial activity was measured by a minimal inhibitory concentration (MIC) assay, carried out with Gram-positive Bacillus subtilis (DSM 347) and Staphylococcus xylosus (DSM 20287) and with Gram-negative Escherichia coli (DSM 1116) and Enterobacter helvet-icus (DSM 18390). […]
gregate stronlgy in contact with the phosphate containing growth medium. […] The MIC value was determined visually as the lowest peptide concentration inhibiting bacterial growth. […]

[7] = tested on: four bacterial strains; details: earlier study; ref [15]; cited from earlier work
Description: (§7) Many natural and man-made AMPs are cationic and fold into simple amphiphilic α-helices. Much fewer examples exist of another fundamental type of secondary structure, namely amphiphilic β-strands. A classic model sequence, [KIGAKI]3-NH2, had been designed from alternating polar and hydrophobic side chains. Recently, we presented an even simpler group of so-called KL peptides, consisting of the alternating (lysine-leucine) dipeptide repeat: [KL]n-NH2. Recently, four KLx peptides of different lengths (x = number of residues, x = 2n) with 6–18 amino acids were compared in terms of ...

[8] = tested on: erythrocytes; details: cited from earlier work
Description: as §7

[9] = Gram-positive, modified MIC: 2-fold dilution series of peptide in water, then bacteria in double-concentration Müller-Hinton medium, 5 × 10^5 CFU/mL, 37°C 20 h, resazurin, visual
[10] = Gram-negative, modified MIC: 2-fold dilution series of peptide in water, then bacteria in double-concentration Müller-Hinton medium, 5 × 10^5 CFU/mL, 37°C 20 h, resazurin, visual

Row | Substance | Hemolysis HC50 (concentration of peptide giving 50% hemolysis) ([1]; 20 h) | MIC S. xylosus ([2]; DSM 20287, 20 h) | MIC E. helveticus ([3]; DSM 18390, 20 h) | MIC E. coli ([4]; DSM 1116, 20 h) | MIC B. subtilis ([5]; DSM 347, 20 h) | further results
1 | KLKLKLKL-NH2 [KL8] | >256 µg/mL | 8 µg/mL | 16 µg/mL | 64 µg/mL | 16 µg/mL | Hemolytic activity (in words) [1]: very low hemolytic activity
2 | KLKLKLKLKLKLKLKLKLKLKLKLKL-NH2 [KL26] | – | – | – | – | – | Hemolysis HC50 (concentration of peptide giving 50% hemolysis) ([1]; interpolated from concentration-dependent curves, washed erythrocytes of healthy donors, 37°C 30 min, absorbance 540 nm, 100% = 1% Triton X-100): <1 µg/mL; Hemolysis ([1]; peptide 1 µg/mL, erythrocytes of healthy donors, 37°C 30 min, A540, relative to Triton-X 100%, average of three absorbance measurements): 52%; Hemolysis ([1]; peptide 2 µg/mL, erythrocytes of healthy donors, 37°C 30 min, A540, relative to Triton-X 100%, average of three absorbance measurements): 71%; Hemolysis ([1]; peptide 4 µg/mL, erythrocytes of healthy donors, 37°C 30 min, A540, relative to Triton-X 100%, average of three absorbance measurements): 72%; Hemolysis ([1]; peptide 8 µg/mL, erythrocytes of healthy donors, 37°C 30 min, A540, relative to Triton-X 100%, average of three absorbance measurements): 72%; Hemolysis ([1]; peptide 16 µg/mL, erythrocytes of healthy donors, 37°C 30 min, A540, relative to Triton-X 100%, average of three absorbance measurements): 56%; Hemolysis ([1]; peptide 32 µg/mL, erythrocytes of healthy donors, 37°C 30 min, A540, relative to Triton-X 100%, average of three absorbance measurements): 50%; Hemolysis ([1]; peptide 64 µg/mL, erythrocytes of healthy donors, 37°C 30 min, A540, relative to Triton-X 100%, average of three absorbance measurements): 47%; Hemolysis ([1]; peptide 128 µg/mL, erythrocytes of healthy donors, 37°C 30 min, A540, relative to Triton-X 100%, average of three absorbance measurements): 42%; Hemolysis ([1]; peptide 256 µg/mL, erythrocytes of healthy donors, 37°C 30 min, A540, relative to Triton-X 100%, average of three absorbance measurements): 39%; MIC S. xylosus [2, 9]: 16 µg/mL; MIC E. helveticus [3, 10]: 16 µg/mL; MIC E. coli [4, 10]: 64 µg/mL; MIC B. subtilis [5, 9]: 32 µg/mL
3 | KLKLKLKLKLKLKLKLKLKLKLKL-NH2 [KL24] | <1 µg/mL | 8 µg/mL | 16 µg/mL | 32 µg/mL | 32 µg/mL | –
4 | KLKLKLKLK-NH2 [KL9] | >256 µg/mL | 2 µg/mL | 8 µg/mL | 32 µg/mL | 16 µg/mL | Hemolysis ([1]; 20 h, 1 µg/mL): 5%; Hemolysis ([1]; 20 h, 2 µg/mL): 6%; Hemolysis ([1]; 20 h, 4 µg/mL): 8%; Hemolysis ([1]; 20 h, 8 µg/mL): 9%; Hemolysis ([1]; 20 h, 16 µg/mL): 9%; Hemolysis ([1]; 20 h, 32 µg/mL): 11%; Hemolysis ([1]; 20 h, 64 µg/mL): 14%; Hemolysis ([1]; 20 h, 128 µg/mL): 18%; Hemolysis ([1]; 20 h, 256 µg/mL): 20%; Hemolytic activity (in words) ([1]; erythrocytes, 37°C 30 min): very low hemolytic activity
5 | KLKLKLKLKLK-NH2 [KL11] | >256 µg/mL | 1 µg/mL | 2 µg/mL | 4 µg/mL | 4 µg/mL | Hemolytic activity (in words) [1]: very low hemolytic activity
6 | KLKLKLKLKLKL-NH2 [KL12] | 8 µg/mL | 2 µg/mL | 2 µg/mL | 2 µg/mL | 2 µg/mL | –
7 | KLKLKLKLKLKLKLKL-NH2 [KL16] | 2 µg/mL | 8 µg/mL | 8 µg/mL | 32 µg/mL | 16 µg/mL | –
8 | KLKLKLKLKLKLKLK-NH2 [KL15] | 2 µg/mL | 2 µg/mL | 2 µg/mL | 8 µg/mL | 4 µg/mL | –
9 | LKLKLKLKL-NH2 [LK9] | 145 µg/mL | 2 µg/mL | 4 µg/mL | 16 µg/mL | 4 µg/mL | –
10 | KLKLKLKLKLKLK-NH2 [KL13] | 9 µg/mL | 1 µg/mL | 1 µg/mL | 2 µg/mL | 2 µg/mL | –
11 | KLKLKL-NH2 [KL6] | >256 µg/mL | 256 µg/mL | 128 µg/mL | >256 µg/mL | >256 µg/mL | Hemolytic activity (in words) [1]: very low hemolytic activity
12 | LKLKLKLKLKLKL-NH2 [LK13] | 2 µg/mL | 4 µg/mL | 4 µg/mL | 8 µg/mL | 8 µg/mL | –
13 | KLKLKLKLKL-NH2 [KL10] | 47 µg/mL | 2 µg/mL | 2 µg/mL | 4 µg/mL | 2 µg/mL | Hemolytic activity (in words) [1]: considerably more hemolytic than LK10; Antimicrobial activity (in words) [6]: highest activity; Antimicrobial effect (in words) [7]: better antimicrobial effect than KL6, KL14 or KL18
14 | KLKLKLKLKLKLKLKLKLKL-NH2 [KL20] | <1 µg/mL | 16 µg/mL | 32 µg/mL | 32 µg/mL | 32 µg/mL | –
15 | KLKLKLKLKLKLKLKLKLKLKL-NH2 [KL22] | <1 µg/mL | 16 µg/mL | 32 µg/mL | 32 µg/mL | 32 µg/mL | –
16 | LKLKLKLKLKLKLKL-NH2 [LK15] | <1 µg/mL | 16 µg/mL | 16 µg/mL | 64 µg/mL | 16 µg/mL | –
17 | LKLKLKLKLK-NH2 [LK10] | 256 µg/mL | 1 µg/mL | 2 µg/mL | 8 µg/mL | 4 µg/mL | –
18 | LKLKLKLKLKL-NH2 [LK11] | 3 µg/mL | 1 µg/mL | 1 µg/mL | 2 µg/mL | 2 µg/mL | –
19 | KLKLKLKLKLKLKLKLKL-NH2 [KL18] | 1 µg/mL | 8 µg/mL | 16 µg/mL | 32 µg/mL | 32 µg/mL | Hemolytic activity (in words) [8]: highly hemolytic
20 | KLKLKLKLKLKLKL-NH2 [KL14] | 1 µg/mL | 4 µg/mL | 4 µg/mL | 8 µg/mL | 4 µg/mL | Hemolytic activity (in words) [8]: highly hemolytic
